Measurements from paper PMC6458997, “Deciphering the Molecular Mechanism Underpinning Phage Arbitrium Communication Systems” (Molecular Cell, 2019).
Entries after “also recorded” stand apart in the source; their conditions may differ. Where two headings read alike, the source gives them in different places.

Tests used:
[1] = target: T1, SPbeta AimR (Bacillus phage SPbeta, UniProt O64094); format: binding, Bacillus subtilis SPbeta phage; conditions: WT SPbeta AimR, 20 μM protein, 20 mM Tris pH 8, 250 mM NaCl
T1 construct: expresses the full-length AimR (residues 1-386) with an N-terminal 6xHistag; 6xHis tag followed by TEV protease site (N, cleaved yes); made in house; host or cells: E. coli BL21 (DE3) RIL
T1 sequence (O64094 whole entry, the tested form may be a part): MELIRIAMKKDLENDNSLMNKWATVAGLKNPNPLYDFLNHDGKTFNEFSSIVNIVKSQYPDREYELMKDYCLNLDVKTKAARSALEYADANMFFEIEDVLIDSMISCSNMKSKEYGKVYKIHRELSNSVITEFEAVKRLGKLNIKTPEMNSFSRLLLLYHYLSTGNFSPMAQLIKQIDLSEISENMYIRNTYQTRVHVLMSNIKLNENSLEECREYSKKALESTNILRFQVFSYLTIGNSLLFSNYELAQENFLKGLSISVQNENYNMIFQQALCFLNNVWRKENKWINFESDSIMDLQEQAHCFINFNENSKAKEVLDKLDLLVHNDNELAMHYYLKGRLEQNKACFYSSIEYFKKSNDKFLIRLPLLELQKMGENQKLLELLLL
Method: (§1) The thermal shift assay was conducted in a 7500 Fast Real time PCR System (Applied Biosystems). Samples of 20 μL containing 5 × Sypro Orange (Sigma-Aldrich) and 20 μM of protein in a 20 mM Tris pH 8 and 250 mM NaCl buffer were loaded in 96-well PCR plates. To calculate the apparent Kd peptide concentrations from 0 to 2 μM were added to the mixture. Samples were heated from 20 to 85°C in steps of one degree. Fluorescent intensity was plotted versus temperature and integrated with GraphPad Prism software using a Boltzmann model to calculate melting temperatures.

[2] = system: SPbeta AimR bound to its operator; format: biochemical, Bacillus subtilis SPbeta phage
From the text: (§2) Gels were stained with RedSafe (Intron Biotechnology).

[3] = system: SPbeta AimR D360A; assay: Thermal shift assay, mutant AimR D360A; format: binding, Bacillus subtilis SPbeta phage; conditions: residual stabilization versus WT
Method: as §1

[4] = system: SPbeta AimR and operators presenting spacers from 12 bp to 35 bp; conditions: pH 7.5
Method: AimR binding to its operator and the inhibition induced by the arbitrium peptides were analyzed by native polyacrylamide and agarose gel electrophoresis. […] Double strand DNA primer probes were purchased from Macrogen (Table S1 and Figure 3A). Purified PCR product or purchased probes (0.4μM) and AimR (4μM) protein were mixed in EMSA buffer (50 mM HEPES pH 7.5, 5 mM MgCl2, 75 mM NaCl and 0.5 mM EDTA). The samples were incubated for 10 min at room temperature. 8% polyacrylamide gels were electrophoresed in Tris-Borate-EDTA (TBE) buffer at 100V for one hour, followed by loading of the samples. Electrophoresis was then performed in TBE buffer at 4°C for about 150 min at 100V. Agarose gels (0.8%–1.2%) were run in TAE buffer at room temperature for about 100 min at 80V. Gels were stained with RedSafe (Intron Biotechnology).

[5] = system: SPbeta AimR bound to putative SPbeta operators; format: biochemical, Bacillus subtilis SPbeta phage; conditions: pH 7.5
From the text: as §2

[6] = target: T1, SPbeta AimR; assay: SEC-MALS, effect of AimP on AimR oligomeric state; format: biochemical, Bacillus subtilis SPbeta phage; conditions: 1 mM peptide in injected sample, 1 μM in running buffer; protein 5 mg/mL; 25 mM Tris pH 8, 250 mM NaCl
Method: SEC-MALS experiments were performed using an AKTA pure system (GE Heralthcare) coupled to a Wyatt DAWN HELEOS-II MALS instrument and a Wyatt Optilab rEX differential refractometer (Wyatt). 50 μL of the protein samples were injected at a concentration of 5 mg/mL on a Superdex 200 HR 10/300 (GE Heralthcare) column equilibrated in 25 mM Tris pH 8, 250 mM NaCl. When the effect of the peptide in the oligomeric state was tested, 1 mM peptide was added to the injected sample and the running buffer was supplemented with peptide at a final concentration of 1 μM. The Astra 7.1.2 software from the manufacturer was used for acquisition and analysis of the data.

[7] = system: AimR N202A bound to the AimR operator; assay: EMSA, AimP-induced DNA dissociation of mutant AimR N202A; format: biochemical, Bacillus subtilis SPbeta phage; conditions: AimR 4 μM, probe 0.4 μM, HEPES pH 7.5, 10 min at room temperature
From the text: as §2

[8] = system: SPbeta AimR N202A; assay: Thermal shift assay, mutant AimR N202A; format: binding, Bacillus subtilis SPbeta phage; conditions: residual stabilization versus WT
Method: as §1

Substance	increment in the Tm (in words) [1]	effect of peptide on AimR-DNA binding ([2]; SPbeta AimR 4 μM, DNA probe 0.4 μM, 50 mM HEPES pH 7.5, 5 mM MgCl2, 75 mM NaCl, 0.5 mM EDTA, 10 min at room temperature)	stabilization induced by AimP, AimR D360A [3]	melting temperature (Tm) of AimR in presence of peptide ([1]; 5 × Sypro Orange, 20 to 85°C in steps of one degree, one of three independent experiments)	DNA binding of AimR-AimP complex [4]	effect of peptide on AimR-DNA binding ([2]; pH 7.5)	DNA release from putative SPbeta operators [5]	effect of AimP on AimR dimer [6]	effect of AimP on DNA dissociation of AimR^N202A [7]	stabilization induced by AimP, AimR N202A [8]
SAIRGA [AimP peptide specific for phi3T phage, negative control for SPbeta AimR, reference compound]	No increment in the Tm	had no effect	–	–	–	–	–	–	–	–
GMPRGA [regulatory arbitrium AimP peptide for SPbeta AimR, hexapeptide, 95% purity, ProteoGenix]	strong stabilization of SPbeta AimR	–	1 °	58.4 °C	unable to bind DNA	induced the release of AimR from DNA; also recorded: specifically disrupts the SPbeta AimR binding to its operator	induces DNA release	did not induce SPbeta AimR dimer dissociation	did not induce DNA dissociation	1 °
